Reference: US20190292189A1, “LIM KINASE INHIBITORS” (VIRONGY, LLC, priority 2016, published 2019)

How the values were obtained:
ROCK-I = ROCK-I (Homo sapiens, UniProt Q13464); assay: ROCK-I biochemical counter-screen; settings: Table 6; read-out: Biochemical Inhibition IC50 (nM) ROCK-I
[1] = test system: cofilin phosphorylation in A7r5 cells; assay: In-cell Western assay of cofilin phosphorylation in A7r5 cells; format: cell-based; settings: A7R5, A7r5 cells; read-out: Cofilin Phosphorylation In A7r5 Cells (IC50)
Procedure: A7r5 (15,000 cells/well) were plated in a clear-bottomed Packard View black 96-well plate in 100 μl of 10% FBS DMEM:F12 medium and were allowed to attach overnight. The next day, the cells were serum starved in 1% FBS DMEM medium for 2 hr and then treated with the compounds for 1 hr. […] Next day, they were washed twice with PBS-0.1% Tween 20 (PBST) washing solution for 5 min each at room temperature on the orbital shaker, followed by one wash with Licor Blocking Buffer containing 0.05% Tween-20 for 5 min on the shaker at RT. The cells were then incubated with secondary antibody goat anti-rabbit IR800 (1:500 dilution) for 1 hr at RT in the dark (covered the plate with foil) in Licor blocking buffer-containing Tween-20. Following this, cells were washed twice with PBST for 5 min each at room temperature and then once with Licor blocking buffer-containing 0.05% Tween-20. The wells were then incubated with ToPro 3 stain (nucleic acid staining), diluted 1:4000 in Licor blocking buffer or Licor blocking buffer with 0.05% Tween-20 for 30 min at room temperature in the dark. Finally the plates were washed twice with PBS and analyzed using the Odyssey LICOR Infrared Scanner.

[2] = test system: p-cofilin in PC-3 prostate cancer cell lines; assay: Cofilin phosphorylation Western blot in PC-3 cells stimulated by HGF; format: cell-based; settings: HGF-stimulated PC-3 cells; 50 nM
Procedure: PC3 cells were cultured at a density of 0.5×10^6 cells/mL in 60 mm culture dishes in 10% FBS RPMI1640 media. Then, the cells were treated with DMSO and the indicated concentration of Limk inhibitors. After incubating for 24 h, the cells were rinsed with ice-cold PBS twice and collected by spinning down at 4° C. in 10,000 rpm for 5 min Cellular lysates were prepared by suspending cells in SDS sample buffer, 120 mmol/L Tris, 4% SDS, 20% glycerol, 0.1 mg/mL bromophenol blue, and 100 mmol/L DTT (pH 6.8). After brief sonication, the lysates were heated at 95° C. for 5 minutes. The cell lysates were separated by 12% SDS-PAGE and transferred to Immobilon-P membranes (Millipore Corp) Immunostaining was done using antibodies specific for phospho-Cofilin (Cell Signaling, #3313) and β-Actin (GeneScript, #A00702) antibodies and the corresponding second antibodies for whole immunoglobulins from mouse or rabbit (Amersham Biosciences). Immunoreactive proteins were detected by chemoluminescence using the Pierce ECL Western Blotting Substrate (Thermo Scientific). We quantified the actual levels of proteins by using the Multigauge ver 3.0 software (Fujifilm). The gels were stained with Coomassie Brilliant Blue R-250 (0.25%) for 1 hour and then destained (all solutions from Bio-Rad) to check the loading amount of protein samples on the gels.

HIV-1(VSVG) = format: cell-based
[3] = test system: cofilin serine 3 phosphorylation in CEM-SS T cells; assay: Western blot of cofilin serine 3 phosphorylation in CEM-SS T cells (time course); format: cell-based, human; settings: 100 μM
Procedure: (§1) FIG. 10. Chemical and Biochemical characterization of R10015. a, Chemical structure of R10015 and its docking into the crystal structure of LIMK1 (PDB ID 3S95, Chain A). […] CEM-SS T cells treated with R10015 (100 μM) for a time course, and the phosphorylation of cofilin, LIMK, and PAK1/2 were measured by Western Blot. Levels of each protein or GAPDH were also measured for loading control. d, R10015 inhibits Jurkat T cell chemotaxis in responding to SDF-1. e, R10015. f, R10015 inhibits chemotactic actin activity. Resting CD4 T cells were treated with R10015, and then exposed to SDF-1 for a time course. Actin polymerization were measured by FITC-phalloidin staining. g, the relative intensity of F-actin staining was also plotted.
(§2) One million cells were lysed in NuPAGE LDS Sample Buffer (Invitrogen), separated by SDS-PAGE, and then transferred onto nitrocellulose membranes (Invitrogen). The membranes were washed in TBST for 3 min and then blocked for 30 min at room temperature with Starting Block blocking buffer (Pierce). For probing with different antibodies, blots were incubated with rabbit anti-LIMK1 antibodies (Cell Signaling), with rabbit anti-p-coflin antibodies (Cell Signaling) or with a mouse anti-PAK1/2 antibody (Cell Signaling). These antibodies were diluted in 2.5% milk/TBST and rocked overnight at 4° C. […]

HIV-1(Env) = assay: Virion release, p24 in supernatant; format: cell-based
HIV-1(AD8) = format: cell-based; settings: non-toxic dosages
phosphorylation of LIMK = assay: Western blot of LIMK phosphorylation in CEM-SS T cells; format: cell-based, human
Procedure: as §1, §2

AKT2 = target: T1, AKT2 (Homo sapiens, UniProt P31751); assay: Kinase profiling at 1 μM (Reaction Biology); format: biochemical; settings: ATP 10 μM
T1 construct: purchased Reaction Biology Corporation
Procedure: (§3) Profiling was carried out at Reaction Biology Corporation following a protocol described at its website: http://www.reactionbiology.com/webapps/site/. The % data were the average from two determinations. ATP concentration used: 10 μM; Staurosporine was used as the positive control.
(§4) Biochemical assays for all Limk inhibitors and kinase profiling were carried out in Reaction Biology Corporation and followed the protocols described on its website. […] Compounds were tested at 1 μM with duplicate experiments in profiling assays. […] Reactions were carried out at 10 μM ATP, 1 μM substrate cofilin, and 50 nM Limk1 (final concentrations).

CK2a = target: T2, CK2a (Homo sapiens, UniProt P68400); assay: Kinase profiling at 1 μM (Reaction Biology); format: biochemical; settings: ATP 10 μM
T2 construct: purchased Reaction Biology Corporation
Procedure: as §3, §4

IGFIR = target: T3, IGFIR (Homo sapiens, UniProt P08069); assay: Kinase profiling at 1 μM (Reaction Biology); format: biochemical; settings: ATP 10 μM
T3 construct: purchased Reaction Biology Corporation
Procedure: as §3, §4

R5K1 = target: T4, R5K1 (Homo sapiens, UniProt Q15418); assay: Kinase profiling at 1 μM (Reaction Biology); format: biochemical; settings: ATP 10 μM
T4 construct: purchased Reaction Biology Corporation
Procedure: as §3, §4

STK16 = target: T5, STK16 (Homo sapiens, UniProt O75716); assay: Kinase profiling at 1 μM (Reaction Biology); format: biochemical; settings: ATP 10 μM
T5 construct: purchased Reaction Biology Corporation
Procedure: as §3, §4

STK33 = target: T6, STK33 (Homo sapiens, UniProt Q9BYT3); assay: Kinase profiling at 1 μM (Reaction Biology); format: biochemical; settings: ATP 10 μM
T6 construct: purchased Reaction Biology Corporation
Procedure: as §3, §4

c-MET = target: T7, c-MET (Homo sapiens, UniProt P08581); assay: Kinase profiling at 1 μM (Reaction Biology); format: biochemical; settings: ATP 10 μM
T7 construct: purchased Reaction Biology Corporation
Procedure: as §3, §4

T6 sequence (Q9BYT3 whole entry): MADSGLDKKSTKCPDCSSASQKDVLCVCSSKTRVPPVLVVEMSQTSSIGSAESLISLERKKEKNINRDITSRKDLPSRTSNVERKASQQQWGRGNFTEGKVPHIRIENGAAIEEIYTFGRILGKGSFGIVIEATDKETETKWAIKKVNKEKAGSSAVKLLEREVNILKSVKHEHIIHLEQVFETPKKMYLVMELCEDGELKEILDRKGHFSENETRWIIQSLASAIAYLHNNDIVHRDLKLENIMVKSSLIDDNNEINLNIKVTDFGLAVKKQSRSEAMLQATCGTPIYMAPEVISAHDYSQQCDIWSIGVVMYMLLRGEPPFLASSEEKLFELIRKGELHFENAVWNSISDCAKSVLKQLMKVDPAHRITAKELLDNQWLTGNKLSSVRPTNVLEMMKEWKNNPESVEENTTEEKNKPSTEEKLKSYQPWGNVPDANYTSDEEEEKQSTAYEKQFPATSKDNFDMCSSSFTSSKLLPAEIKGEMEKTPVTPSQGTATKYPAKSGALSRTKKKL
T4 sequence (Q15418 whole entry): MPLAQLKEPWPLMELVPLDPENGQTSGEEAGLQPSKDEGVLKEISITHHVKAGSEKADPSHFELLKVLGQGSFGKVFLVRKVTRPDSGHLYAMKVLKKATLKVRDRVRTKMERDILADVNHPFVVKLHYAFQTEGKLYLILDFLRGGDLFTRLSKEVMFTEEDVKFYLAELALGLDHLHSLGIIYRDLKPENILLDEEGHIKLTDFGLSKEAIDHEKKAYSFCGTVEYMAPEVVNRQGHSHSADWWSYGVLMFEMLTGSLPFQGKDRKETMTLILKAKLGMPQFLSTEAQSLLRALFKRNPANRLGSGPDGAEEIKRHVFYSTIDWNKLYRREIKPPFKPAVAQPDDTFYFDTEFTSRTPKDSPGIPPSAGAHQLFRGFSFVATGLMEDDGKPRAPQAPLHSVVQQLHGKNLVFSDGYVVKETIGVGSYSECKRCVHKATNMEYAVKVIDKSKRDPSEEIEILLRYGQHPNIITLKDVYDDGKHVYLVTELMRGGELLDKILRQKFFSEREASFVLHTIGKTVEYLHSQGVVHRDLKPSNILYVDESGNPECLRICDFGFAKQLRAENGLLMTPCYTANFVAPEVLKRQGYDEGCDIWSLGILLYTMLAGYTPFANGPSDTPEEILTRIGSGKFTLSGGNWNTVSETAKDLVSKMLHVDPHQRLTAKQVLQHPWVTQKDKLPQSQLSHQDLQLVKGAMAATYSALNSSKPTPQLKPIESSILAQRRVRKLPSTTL
T5 sequence (O75716 whole entry): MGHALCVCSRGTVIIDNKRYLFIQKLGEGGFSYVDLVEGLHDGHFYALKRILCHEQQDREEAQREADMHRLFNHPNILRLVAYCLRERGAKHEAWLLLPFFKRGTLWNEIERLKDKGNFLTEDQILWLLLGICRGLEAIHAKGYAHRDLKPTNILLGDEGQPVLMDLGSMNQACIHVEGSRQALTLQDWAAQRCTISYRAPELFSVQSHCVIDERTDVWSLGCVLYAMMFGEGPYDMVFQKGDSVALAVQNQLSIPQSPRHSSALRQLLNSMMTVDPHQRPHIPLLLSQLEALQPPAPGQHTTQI
T3 sequence (P08069 31-1367): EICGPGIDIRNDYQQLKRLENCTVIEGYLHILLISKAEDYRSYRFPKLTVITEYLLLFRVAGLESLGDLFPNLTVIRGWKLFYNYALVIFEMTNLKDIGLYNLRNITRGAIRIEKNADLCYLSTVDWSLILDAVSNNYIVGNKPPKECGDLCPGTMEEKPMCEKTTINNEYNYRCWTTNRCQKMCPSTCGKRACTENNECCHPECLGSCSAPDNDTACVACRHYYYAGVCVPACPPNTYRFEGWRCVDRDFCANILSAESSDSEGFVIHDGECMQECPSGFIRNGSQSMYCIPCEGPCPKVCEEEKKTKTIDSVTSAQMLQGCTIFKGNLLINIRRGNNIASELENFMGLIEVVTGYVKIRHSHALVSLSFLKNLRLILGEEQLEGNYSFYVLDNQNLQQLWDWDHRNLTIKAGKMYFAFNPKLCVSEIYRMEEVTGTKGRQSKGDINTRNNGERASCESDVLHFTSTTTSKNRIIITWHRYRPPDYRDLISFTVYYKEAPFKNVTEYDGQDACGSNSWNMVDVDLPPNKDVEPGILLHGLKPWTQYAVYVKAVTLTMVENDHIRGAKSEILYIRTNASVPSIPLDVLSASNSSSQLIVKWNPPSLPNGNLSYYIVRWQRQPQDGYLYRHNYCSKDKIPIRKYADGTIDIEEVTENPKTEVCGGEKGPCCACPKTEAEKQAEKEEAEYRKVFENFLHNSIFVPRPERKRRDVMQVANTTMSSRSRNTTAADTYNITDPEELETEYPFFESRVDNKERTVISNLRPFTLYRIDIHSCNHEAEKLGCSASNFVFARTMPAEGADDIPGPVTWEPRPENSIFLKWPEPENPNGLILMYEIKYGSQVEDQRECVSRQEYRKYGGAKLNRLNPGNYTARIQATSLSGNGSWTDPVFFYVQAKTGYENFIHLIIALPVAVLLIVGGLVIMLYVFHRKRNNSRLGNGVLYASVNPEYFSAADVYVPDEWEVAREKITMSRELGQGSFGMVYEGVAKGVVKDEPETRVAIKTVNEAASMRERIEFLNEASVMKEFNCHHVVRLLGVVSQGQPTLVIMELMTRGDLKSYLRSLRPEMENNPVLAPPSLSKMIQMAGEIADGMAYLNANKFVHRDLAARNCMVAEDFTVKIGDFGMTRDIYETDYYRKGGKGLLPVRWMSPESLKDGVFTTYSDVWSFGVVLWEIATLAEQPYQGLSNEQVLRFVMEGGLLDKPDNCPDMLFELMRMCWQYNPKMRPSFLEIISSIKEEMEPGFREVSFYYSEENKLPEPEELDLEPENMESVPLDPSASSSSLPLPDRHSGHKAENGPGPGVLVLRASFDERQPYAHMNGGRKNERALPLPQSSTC
Chain of ROCK-I (Q13464 whole entry, species assumed): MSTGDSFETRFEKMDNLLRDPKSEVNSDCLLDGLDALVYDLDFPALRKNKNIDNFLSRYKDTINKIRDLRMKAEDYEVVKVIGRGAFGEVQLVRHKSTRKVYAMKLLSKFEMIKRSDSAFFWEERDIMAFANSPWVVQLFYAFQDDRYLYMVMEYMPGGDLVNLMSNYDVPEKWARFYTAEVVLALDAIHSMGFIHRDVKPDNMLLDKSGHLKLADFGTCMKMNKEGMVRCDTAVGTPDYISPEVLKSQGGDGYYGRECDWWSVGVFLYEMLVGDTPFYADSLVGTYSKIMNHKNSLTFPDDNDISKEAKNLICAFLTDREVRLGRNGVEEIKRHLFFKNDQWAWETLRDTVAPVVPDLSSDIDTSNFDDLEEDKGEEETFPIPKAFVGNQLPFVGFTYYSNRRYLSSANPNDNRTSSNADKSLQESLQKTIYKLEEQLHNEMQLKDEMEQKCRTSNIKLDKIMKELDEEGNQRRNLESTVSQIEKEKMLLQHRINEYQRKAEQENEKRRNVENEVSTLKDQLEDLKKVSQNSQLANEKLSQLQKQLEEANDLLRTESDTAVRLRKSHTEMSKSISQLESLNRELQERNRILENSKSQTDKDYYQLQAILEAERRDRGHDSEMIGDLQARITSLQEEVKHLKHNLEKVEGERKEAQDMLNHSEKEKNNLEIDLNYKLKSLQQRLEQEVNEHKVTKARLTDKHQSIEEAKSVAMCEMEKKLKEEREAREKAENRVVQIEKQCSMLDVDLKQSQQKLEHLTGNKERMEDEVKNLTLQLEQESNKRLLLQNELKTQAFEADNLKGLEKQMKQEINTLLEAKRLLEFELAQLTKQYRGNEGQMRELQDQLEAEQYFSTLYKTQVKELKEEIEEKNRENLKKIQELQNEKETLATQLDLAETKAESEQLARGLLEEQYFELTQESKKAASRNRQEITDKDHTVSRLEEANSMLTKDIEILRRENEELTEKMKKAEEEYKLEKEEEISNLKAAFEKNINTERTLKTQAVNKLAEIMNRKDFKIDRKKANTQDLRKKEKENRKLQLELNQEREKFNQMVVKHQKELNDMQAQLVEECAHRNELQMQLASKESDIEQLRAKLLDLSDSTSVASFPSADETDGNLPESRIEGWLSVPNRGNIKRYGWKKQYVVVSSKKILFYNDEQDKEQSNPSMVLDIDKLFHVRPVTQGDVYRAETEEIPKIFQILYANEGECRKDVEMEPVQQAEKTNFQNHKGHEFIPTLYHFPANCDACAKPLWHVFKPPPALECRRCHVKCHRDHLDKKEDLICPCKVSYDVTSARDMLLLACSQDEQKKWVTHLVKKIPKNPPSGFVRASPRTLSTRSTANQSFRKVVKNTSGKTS
T2 sequence (P68400 whole entry): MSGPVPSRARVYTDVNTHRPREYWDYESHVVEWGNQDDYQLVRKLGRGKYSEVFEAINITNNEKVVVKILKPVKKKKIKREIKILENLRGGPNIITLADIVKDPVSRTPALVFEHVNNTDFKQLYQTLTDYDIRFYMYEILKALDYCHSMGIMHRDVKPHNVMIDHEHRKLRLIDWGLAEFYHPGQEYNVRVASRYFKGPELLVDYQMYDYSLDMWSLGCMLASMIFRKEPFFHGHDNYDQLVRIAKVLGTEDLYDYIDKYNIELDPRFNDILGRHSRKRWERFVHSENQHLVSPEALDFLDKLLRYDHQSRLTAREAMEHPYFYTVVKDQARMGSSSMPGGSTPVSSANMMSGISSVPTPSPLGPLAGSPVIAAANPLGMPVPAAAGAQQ

Structure (SMILES) | IC50 (ROCK-I) [nM] | IC50 [1] [nM] | inhibition of cofilin phosphorylation in PC-3 cells (Western blot) [2] | inhibition of VSVG pseudotyped HIV (HIV-1(VSVG)) | cofilin serine 3 phosphorylation [3] | viral release (HIV-1(Env)) | R5 viral infection of memory CD4 T cells (HIV-1(AD8)) | phosphorylation of LIMK (phosphorylation of LIMK) | activity at 1 µM (AKT2) [%] | activity at 1 µM (CK2a) [%] | activity at 1 µM (IGFIR) [%] | activity at 1 µM (R5K1) [%] | activity at 1 µM (STK16) [%] | activity at 1 µM (STK33) [%] | activity at 1 µM (c-MET) [%]
Cc1c[nH]c2ncnc(-c3ccc(NC(=O)N(CCO)c4ccccc4)cc3)c12 [Compound 18b, 1-(2-Hydroxyethyl)-3-(4-(5-methyl-7H-pyrrolo[2,3-d]pyrimidin-4-yl)phenyl)-1-phenylurea] | 5540 | 470 | significant inhibition |  |  |  |  |  |  |  |  |  |  |  | 
COC(=O)c1ccc2[nH]c(C3CCN(c4ncnc5[nH]cc(Cl)c45)CC3)nc2c1 [Compound R10015, Methyl 2-(1-(5-chloro-7H-pyrrolo[2,3-d]pyrimidin-4-yl)piperidin-4-yl)-1Hbenzo[d]imidazole-5-carboxylate] |  |  |  | did not inhibit | drastic inhibition | inhibited | inhibition | did not inhibit | 73.1 | 94.2 | 90 | 47.2 | 48.6 | 56.5 | 82.1
